Test results published in article PMC11831487, “Novel Naphthyridones Targeting Pannexin 1 for Colitis Management” (Advanced Science, 2024).

Assays:
[1] = biological target: T1, Pannexin 1 (PANX1) (Homo sapiens, UniProt Q96RD7); assay: To-Pro-3 uptake in HEK293T cells at […]; assay type: cell-based; design: C-terminally truncated hPANX1-CT-EGFP; conditions: HEK-293T; read-out: Mean ± SEM ^a)
[2] = biological target: T1, Pannexin 1 (PANX1); assay: whole-cell voltage clamp in HEK293T cells (-50 mV); CETSA (Tagg […] to […] °C); assay type: cell-based; design: hPANX1(TEV)-EGFP cleaved by TEVp (currents); full-length hPANX1-FLAG (CETSA)

T1 sequence (Q96RD7 1-379 limits assumed): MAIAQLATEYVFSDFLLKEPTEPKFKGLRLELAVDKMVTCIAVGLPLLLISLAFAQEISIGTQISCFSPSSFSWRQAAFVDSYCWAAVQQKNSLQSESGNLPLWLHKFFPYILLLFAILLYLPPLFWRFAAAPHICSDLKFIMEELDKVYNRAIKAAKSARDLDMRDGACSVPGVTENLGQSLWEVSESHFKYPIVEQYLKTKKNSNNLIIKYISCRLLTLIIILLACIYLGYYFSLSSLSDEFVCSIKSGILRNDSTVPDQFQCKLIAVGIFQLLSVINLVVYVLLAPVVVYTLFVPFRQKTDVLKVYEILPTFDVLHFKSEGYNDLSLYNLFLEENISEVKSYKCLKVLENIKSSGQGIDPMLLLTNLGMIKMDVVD

| SMILES | inhibition at 20 µM [1] [%] | IC50 [2] [nM] |
| --- | --- | --- |
| N[C@@H]1[C@H]2CN(c3nc4c(cc3F)c(=O)c(C(=O)O)cn4-c3ccc(F)cc3F)C[C@@H]12 [Trovan, trovafloxacin] | 87.3 ± 1.3 |  |
| COc1ccc(Cn2cc(C(=O)O)c(=O)c3cc(F)c(N4CCN(C)CC4)nc32)c(OC)c1 [compound 12, lithium 1‐(2,4‐dimethoxybenzyl)−6‐fluoro‐7‐(4‐methylpiperazin‐1‐yl)−4‐oxo‐1,4‐dihydro‐1,8‐naphthyridine‐3‐carboxylate] |  | ~730 |
